Source: ChEMBL document CHEMBL1201862, “PubChem BioAssay data set” (2004)
Blank lines part the entries; values can stand above or below the molecule they belong to. Calls of active or inactive are those of the source.

What was measured:
Format in all cases: functional
[1] = biological target: Protein kinase C theta type (Homo sapiens, UniProt Q04759); assay: Navigating the Kinome. Panel member name: PRKCQ
[2] = biological target: Ribosomal protein S6 kinase alpha-3 (Homo sapiens, UniProt P51812);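 note: measured within a kinome-wide profiling panel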
Sequence of Ribosomal protein S6 kinase alpha-3 (P51812 whole entry): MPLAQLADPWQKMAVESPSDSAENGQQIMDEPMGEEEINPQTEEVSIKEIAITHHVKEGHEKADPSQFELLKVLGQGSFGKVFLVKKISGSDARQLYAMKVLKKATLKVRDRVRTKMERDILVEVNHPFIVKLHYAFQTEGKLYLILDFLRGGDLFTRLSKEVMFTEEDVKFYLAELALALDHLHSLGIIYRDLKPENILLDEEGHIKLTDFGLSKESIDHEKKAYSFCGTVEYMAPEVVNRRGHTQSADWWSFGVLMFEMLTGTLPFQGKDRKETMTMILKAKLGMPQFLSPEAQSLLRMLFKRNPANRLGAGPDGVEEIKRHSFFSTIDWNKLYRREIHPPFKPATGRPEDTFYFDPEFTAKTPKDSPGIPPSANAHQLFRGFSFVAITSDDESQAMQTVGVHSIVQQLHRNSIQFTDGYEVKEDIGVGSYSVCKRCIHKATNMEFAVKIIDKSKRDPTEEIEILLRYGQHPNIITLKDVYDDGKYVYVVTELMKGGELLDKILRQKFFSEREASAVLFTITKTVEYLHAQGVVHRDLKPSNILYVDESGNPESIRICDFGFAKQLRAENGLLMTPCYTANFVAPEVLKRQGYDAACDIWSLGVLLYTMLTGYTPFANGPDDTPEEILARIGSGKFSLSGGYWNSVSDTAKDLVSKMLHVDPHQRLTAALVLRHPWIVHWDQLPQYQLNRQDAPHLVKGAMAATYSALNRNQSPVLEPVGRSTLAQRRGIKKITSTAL

[3] = biological target: Dual specificity protein kinase CLK2 (Homo sapiens, UniProt P49760)
[4] = biological target: Dual specificity mitogen-activated protein kinase kinase 1 (Homo sapiens, UniProt Q02750); assay: Navigating the Kinome. Panel member name: MAP2K1
[5] = biological target: Tyrosine-protein kinase JAK2 (Homo sapiens, UniProt O60674);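 note: JAK2 tested as one member of a kinase panel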
[6] = biological target: Serine/threonine-protein kinase TBK1 (Homo sapiens, UniProt Q9UHD2); assay: Navigating the Kinome. Panel member name: TBK1
[7] = biological target: 5'-AMP-activated protein kinase catalytic subunit alpha-1 (Homo sapiens, UniProt Q13131)
[8] = biological target: ALK tyrosine kinase receptor (Homo sapiens, UniProt Q9UM73);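 note: ALK tested as one member of a kinase panel screen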
[9] = biological target: Proto-oncogene tyrosine-protein kinase receptor Ret (Homo sapiens, UniProt P07949);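 note: measured within a kinome-wide profiling panel, RET as the panel member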
[10] = biological target: Tyrosine-protein kinase receptor TYRO3 (Homo sapiens, UniProt Q06418);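 note: TYRO3 value obtained as one member of a kinome-wide profiling panel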
[11] = biological target: Serine/threonine-protein kinase D3 (Homo sapiens, UniProt O94806);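 note: determined within a kinase panel screen, with PRKCN as the panel member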
[12] = biological target: Death-associated protein kinase 3 (Homo sapiens, UniProt O43293);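 note: measured as one member of a kinome-wide profiling panel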
[13] = biological target: Activin receptor type-1 (Homo sapiens, UniProt Q04771); assay: Navigating the Kinome. Panel member name: ACVR1
[14] = biological target: Mitogen-activated protein kinase 8 (Homo sapiens, UniProt P45983);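 note: value comes from one member of a kinome-wide kinase profiling panel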
[15] = biological target: Serine/threonine-protein kinase pim-1 (Homo sapiens, UniProt P11309)
Sequence of Serine/threonine-protein kinase pim-1 (P11309 whole entry): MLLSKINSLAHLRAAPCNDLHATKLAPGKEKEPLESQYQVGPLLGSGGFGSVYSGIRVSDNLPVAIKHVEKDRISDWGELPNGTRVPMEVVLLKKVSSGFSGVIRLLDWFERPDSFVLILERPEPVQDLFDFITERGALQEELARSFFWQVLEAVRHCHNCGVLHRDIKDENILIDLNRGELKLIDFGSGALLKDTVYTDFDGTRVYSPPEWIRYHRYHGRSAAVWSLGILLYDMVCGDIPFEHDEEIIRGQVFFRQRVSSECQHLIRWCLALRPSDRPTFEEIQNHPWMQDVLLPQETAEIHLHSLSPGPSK

[16] = biological target: T1, Aurora kinase A (Homo sapiens, UniProt O14965);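 note: value from the Navigating the Kinome kinase panel profiling, panel entry STK6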
T1 sequence (O14965 whole entry): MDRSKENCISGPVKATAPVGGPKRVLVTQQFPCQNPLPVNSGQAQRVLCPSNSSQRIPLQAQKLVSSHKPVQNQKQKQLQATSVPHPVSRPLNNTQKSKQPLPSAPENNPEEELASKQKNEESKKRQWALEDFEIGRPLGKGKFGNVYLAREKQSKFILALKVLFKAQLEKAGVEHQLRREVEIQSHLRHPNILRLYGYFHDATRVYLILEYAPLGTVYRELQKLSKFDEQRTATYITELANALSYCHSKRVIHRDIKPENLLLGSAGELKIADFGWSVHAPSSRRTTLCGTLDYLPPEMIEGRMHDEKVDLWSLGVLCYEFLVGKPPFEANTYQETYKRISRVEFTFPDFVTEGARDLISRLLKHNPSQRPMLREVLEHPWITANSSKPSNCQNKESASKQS

[17] = biological target: Tyrosine-protein kinase BTK (Homo sapiens, UniProt Q06187)
[18] = biological target: Serine/threonine-protein kinase PAK 4 (Homo sapiens, UniProt O96013);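 note: value obtained within a kinome profiling panel in which PAK4 was one of the panel members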
[19] = biological target: Fibroblast growth factor receptor 1 (Homo sapiens, UniProt P11362)
Sequence of Fibroblast growth factor receptor 1 (P11362 whole entry, canonical isoform): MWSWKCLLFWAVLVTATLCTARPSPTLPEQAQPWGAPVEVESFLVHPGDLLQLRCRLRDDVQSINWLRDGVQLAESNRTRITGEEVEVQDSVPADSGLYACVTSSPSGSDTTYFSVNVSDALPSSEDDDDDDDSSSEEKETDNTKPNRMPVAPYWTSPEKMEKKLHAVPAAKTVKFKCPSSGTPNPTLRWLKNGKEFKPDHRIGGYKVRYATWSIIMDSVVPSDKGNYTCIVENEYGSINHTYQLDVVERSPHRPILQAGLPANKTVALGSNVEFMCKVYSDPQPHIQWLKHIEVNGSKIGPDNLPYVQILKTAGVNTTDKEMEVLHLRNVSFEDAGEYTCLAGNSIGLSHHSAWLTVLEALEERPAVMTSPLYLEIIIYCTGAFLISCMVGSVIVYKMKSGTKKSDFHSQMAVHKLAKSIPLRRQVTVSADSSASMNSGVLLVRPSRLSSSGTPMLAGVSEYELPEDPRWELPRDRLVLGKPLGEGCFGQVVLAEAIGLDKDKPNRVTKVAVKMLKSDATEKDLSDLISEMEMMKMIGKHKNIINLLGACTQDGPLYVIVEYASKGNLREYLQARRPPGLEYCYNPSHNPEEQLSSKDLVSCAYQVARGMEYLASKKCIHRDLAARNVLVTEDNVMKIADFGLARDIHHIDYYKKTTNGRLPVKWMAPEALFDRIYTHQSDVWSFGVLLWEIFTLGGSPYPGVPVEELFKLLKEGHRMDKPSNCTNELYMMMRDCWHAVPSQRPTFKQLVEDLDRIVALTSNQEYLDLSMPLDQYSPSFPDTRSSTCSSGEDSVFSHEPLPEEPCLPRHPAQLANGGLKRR

[20] = biological target: Casein kinase I isoform alpha (Homo sapiens, UniProt P48729)
[21] = biological target: Tyrosine-protein kinase JAK3 (Homo sapiens, UniProt P52333)
[22] = biological target: LIM domain kinase 1 (Homo sapiens, UniProt P53667); assay: Navigating the Kinome. Panel member name: LIMK1
[23] = biological target: Serine/threonine-protein kinase TAO1 (Homo sapiens, UniProt Q7L7X3)
Sequence of Serine/threonine-protein kinase TAO1 (Q7L7X3 whole entry): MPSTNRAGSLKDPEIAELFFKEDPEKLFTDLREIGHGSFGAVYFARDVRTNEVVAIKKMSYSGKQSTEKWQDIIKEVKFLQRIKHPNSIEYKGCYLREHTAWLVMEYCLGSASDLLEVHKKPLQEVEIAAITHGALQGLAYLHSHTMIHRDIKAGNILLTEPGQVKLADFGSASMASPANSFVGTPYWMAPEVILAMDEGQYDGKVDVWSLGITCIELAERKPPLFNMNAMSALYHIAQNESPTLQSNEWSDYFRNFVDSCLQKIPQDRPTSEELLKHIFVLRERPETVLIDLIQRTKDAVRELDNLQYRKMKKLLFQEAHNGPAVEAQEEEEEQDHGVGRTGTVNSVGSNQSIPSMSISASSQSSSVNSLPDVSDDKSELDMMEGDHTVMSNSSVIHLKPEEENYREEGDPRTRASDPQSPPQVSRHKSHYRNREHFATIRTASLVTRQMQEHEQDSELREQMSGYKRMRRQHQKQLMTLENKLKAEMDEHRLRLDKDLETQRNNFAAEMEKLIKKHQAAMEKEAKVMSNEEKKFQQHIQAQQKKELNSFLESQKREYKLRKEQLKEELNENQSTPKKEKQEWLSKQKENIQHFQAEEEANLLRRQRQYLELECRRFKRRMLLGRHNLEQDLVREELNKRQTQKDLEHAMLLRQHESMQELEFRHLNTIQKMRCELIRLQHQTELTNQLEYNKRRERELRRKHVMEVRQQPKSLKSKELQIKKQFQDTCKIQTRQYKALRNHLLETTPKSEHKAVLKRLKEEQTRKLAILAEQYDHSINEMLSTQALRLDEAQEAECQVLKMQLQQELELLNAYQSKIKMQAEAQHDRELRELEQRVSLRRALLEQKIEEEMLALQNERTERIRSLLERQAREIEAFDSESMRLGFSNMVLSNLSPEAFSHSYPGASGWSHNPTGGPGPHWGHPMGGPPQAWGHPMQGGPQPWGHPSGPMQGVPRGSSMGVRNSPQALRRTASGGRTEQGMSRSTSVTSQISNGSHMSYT

[24] = biological target: Glycogen synthase kinase-3 alpha (Homo sapiens, UniProt P49840);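 note: GSK3A result taken from a broad kinome-wide kinase panel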
[25] = biological target: Mitogen-activated protein kinase kinase kinase kinase 2 (Homo sapiens, UniProt Q12851);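 note: measured as one member of a kinome-wide kinase panel, with MAP4K2 as the panel entry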
Sequence of Mitogen-activated protein kinase kinase kinase kinase 2 (Q12851 whole entry): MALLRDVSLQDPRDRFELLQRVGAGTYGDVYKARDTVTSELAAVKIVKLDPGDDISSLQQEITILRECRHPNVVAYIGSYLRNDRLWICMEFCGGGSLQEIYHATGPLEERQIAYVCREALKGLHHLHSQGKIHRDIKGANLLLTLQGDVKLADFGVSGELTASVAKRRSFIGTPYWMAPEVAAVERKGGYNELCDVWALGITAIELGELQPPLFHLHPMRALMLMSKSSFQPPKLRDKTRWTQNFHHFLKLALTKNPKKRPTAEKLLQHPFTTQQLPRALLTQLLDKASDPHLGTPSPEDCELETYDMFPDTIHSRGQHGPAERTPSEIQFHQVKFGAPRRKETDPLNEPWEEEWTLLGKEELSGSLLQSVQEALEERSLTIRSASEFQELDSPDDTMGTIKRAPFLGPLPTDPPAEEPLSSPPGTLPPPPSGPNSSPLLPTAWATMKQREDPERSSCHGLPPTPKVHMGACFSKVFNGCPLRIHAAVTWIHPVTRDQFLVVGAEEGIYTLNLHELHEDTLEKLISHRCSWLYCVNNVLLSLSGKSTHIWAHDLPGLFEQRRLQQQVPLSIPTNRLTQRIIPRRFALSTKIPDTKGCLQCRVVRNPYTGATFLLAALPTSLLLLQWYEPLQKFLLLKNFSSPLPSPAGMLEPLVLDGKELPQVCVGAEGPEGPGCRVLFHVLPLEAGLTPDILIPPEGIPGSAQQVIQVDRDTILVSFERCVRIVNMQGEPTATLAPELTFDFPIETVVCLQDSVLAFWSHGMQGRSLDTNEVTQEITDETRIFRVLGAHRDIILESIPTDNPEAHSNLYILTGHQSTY

[26] = biological target: Hepatocyte growth factor receptor (Homo sapiens, UniProt P08581);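 note: kinase panel profiling across the kinome, with MET as the panel member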
[27] = biological target: Activated CDC42 kinase 1 (Homo sapiens, UniProt Q07912); assay: Navigating the Kinome. Panel member name: ACK1
[28] = biological target: Tyrosine-protein kinase ABL1 (Homo sapiens, UniProt P00519)
Sequence of Tyrosine-protein kinase ABL1 (P00519 whole entry): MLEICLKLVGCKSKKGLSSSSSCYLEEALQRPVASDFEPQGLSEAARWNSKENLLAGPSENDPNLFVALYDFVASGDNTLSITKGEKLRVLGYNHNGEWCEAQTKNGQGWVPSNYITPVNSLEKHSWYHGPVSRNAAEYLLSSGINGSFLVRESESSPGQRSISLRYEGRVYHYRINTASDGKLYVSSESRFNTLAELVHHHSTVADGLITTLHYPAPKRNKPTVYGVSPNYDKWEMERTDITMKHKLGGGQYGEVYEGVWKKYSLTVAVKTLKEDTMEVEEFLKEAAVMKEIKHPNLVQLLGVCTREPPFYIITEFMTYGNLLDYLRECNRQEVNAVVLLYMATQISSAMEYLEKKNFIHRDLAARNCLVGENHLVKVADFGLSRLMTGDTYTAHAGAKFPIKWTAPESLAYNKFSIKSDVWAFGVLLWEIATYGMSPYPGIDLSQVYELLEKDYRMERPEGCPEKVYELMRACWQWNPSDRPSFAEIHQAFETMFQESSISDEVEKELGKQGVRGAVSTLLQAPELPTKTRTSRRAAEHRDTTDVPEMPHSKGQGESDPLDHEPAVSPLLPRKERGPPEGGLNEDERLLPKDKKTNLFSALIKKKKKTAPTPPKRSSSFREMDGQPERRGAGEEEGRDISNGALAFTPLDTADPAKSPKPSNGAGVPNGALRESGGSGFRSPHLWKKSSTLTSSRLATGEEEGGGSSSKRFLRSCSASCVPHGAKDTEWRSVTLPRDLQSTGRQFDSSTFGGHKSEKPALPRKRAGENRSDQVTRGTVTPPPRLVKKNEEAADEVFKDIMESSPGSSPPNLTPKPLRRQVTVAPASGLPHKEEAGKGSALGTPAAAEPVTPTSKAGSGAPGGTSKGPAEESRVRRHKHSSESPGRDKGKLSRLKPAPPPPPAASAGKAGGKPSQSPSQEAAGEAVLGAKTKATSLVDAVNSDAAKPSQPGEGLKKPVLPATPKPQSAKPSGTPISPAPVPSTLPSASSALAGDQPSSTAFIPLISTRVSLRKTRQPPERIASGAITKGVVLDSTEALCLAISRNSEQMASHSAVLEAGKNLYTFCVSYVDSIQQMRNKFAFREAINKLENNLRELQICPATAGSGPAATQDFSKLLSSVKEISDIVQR

[29] = biological target: Vascular endothelial growth factor receptor 2 (Homo sapiens, UniProt P35968)
[30] = biological target: Focal adhesion kinase 1 (Homo sapiens, UniProt Q05397);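 note: measured as one member of a kinome panel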
[31] = biological target: Platelet-derived growth factor receptor alpha (Homo sapiens, UniProt P16234); assay: Navigating the Kinome. Panel member name: PDGFRA
[32] = biological target: Leucine-rich repeat serine/threonine-protein kinase 2 (Homo sapiens, UniProt Q5S007);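 note: value from a broad kinome-wide panel profiling study in which LRRK2 was one of the kinases tested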
[33] = biological target: Rho-associated protein kinase 1 (Homo sapiens, UniProt Q13464);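 note: measured within a broad kinome-wide panel profiling many kinases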
[34] = biological target: Serine/threonine-protein kinase Nek2 (Homo sapiens, UniProt P51955)
[35] = biological target: Vascular endothelial growth factor receptor 1 (Homo sapiens, UniProt P17948);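 note: measured within a kinome-wide profiling panel, FLT1 as the panel member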
[36] = biological target: Cyclin-dependent kinase 9 (Homo sapiens, UniProt P50750);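 note: value from the CDK9 entry of a kinome-spanning kinase panel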
[37] = biological target: Dual specificity protein kinase CLK4 (Homo sapiens, UniProt Q9HAZ1)
[38] = biological target: Macrophage-stimulating protein receptor (Homo sapiens, UniProt Q04912); assay: Navigating the Kinome. Panel member name: MST1R
[39] = biological target: Macrophage colony-stimulating factor 1 receptor (Homo sapiens, UniProt P07333);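 note: value comes from the Navigating the Kinome screening panel, CSF1R member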
[40] = biological target: Dual specificity tyrosine-phosphorylation-regulated kinase 1A (Homo sapiens, UniProt Q13627);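 note: measured against DYRK1A as one member of a broad kinome profiling panel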
[41] = biological target: Inhibitor of nuclear factor kappa-B kinase subunit epsilon (Homo sapiens, UniProt Q14164); assay: Navigating the Kinome. Panel member name: IKBKE
[42] = biological target: Leukocyte tyrosine kinase receptor (Homo sapiens, UniProt P29376); assay: Navigating the Kinome. Panel member name: LTK

Ki [1]: 31.6 µM (active) | Ki [2]: 31.6 µM (active) | Ki [3]: 15.8 µM (active) | Ki [4]: 25.1 µM (active) | Ki [5]: 25.1 µM (active) | Ki [6]: 31.6 µM (active) | Ki [7]: 12.6 µM (active) | Ki [8]: 79.4 µM (active) | Ki [9]: 25.1 µM (active) | Ki [10]: 10 µM (active) | Ki [11]: 3.16 µM (active) | Ki [13]: 7.94 µM (active) | Ki [14]: 25.1 µM (active) | Ki [15]: 15.8 µM (active) | Ki [16]: 7.94 µM (active) | Ki [17]: 31.6 µM (active) | Ki [18]: 50.1 µM (active) | Ki [19]: 31.6 µM (active) | Ki [20]: 7.94 µM (active) | Ki [21]: 25.1 µM (active) | Ki [22]: 3.16 µM (active) | Ki [23]: 79.4 µM (active) | Ki [24]: 39.8 µM (active) | Ki [25]: 31.6 µM (active) | Ki [26]: 12.6 µM (active) | Ki [27]: 31.6 µM (active) | Ki [28]: 39.8 µM (active) | Ki [29]: 63.1 µM (active) | Ki [30]: 31.6 µM (active) | Ki [31]: 15.8 µM (active) | Ki [32]: 3.98 µM (active) | Ki [33]: 15.8 µM (active) | Ki [34]: 6.31 µM (active) | Ki [35]: 7.94 µM (active) | Ki [36]: 5.01 µM (active) | Ki [37]: 1.26 µM (active) | Ki [38]: 31.6 µM (active) | Ki [39]: 39.8 µM (active) | Ki [40]: 1.58 µM (active) | Ki [41]: 7.94 µM (active) | Ki [42]: 5.01 µM (active)
Structure (SMILES): O=c1[nH][nH]c2ccc(Br)cc12
Ki [12]: 7.94 µM (active)

Ki [1]: > 2.51 µM (inactive) | Ki [2]: 0.631 µM (active) | Ki [3]: 0.0316 µM (active) | Ki [4]: > 3.16 µM (inactive) | Ki [5]: > 2.51 µM (inactive) | Ki [6]: > 3.16 µM (inactive) | Ki [7]: > 3.16 µM (inactive) | Ki [8]: 0.00126 µM (active) | Ki [9]: > 3.16 µM (inactive) | Ki [10]: > 3.16 µM (inactive) | Ki [11]: 0.398 µM (active) | Ki [13]: > 3.98 µM (inactive) | Ki [14]: 0.158 µM (active) | Ki [15]: 3.98 µM (active) | Ki [16]: > 1.58 µM (inactive) | Ki [17]: > 6.31 µM (inactive) | Ki [18]: > 5.01 µM (inactive) | Ki [19]: > 3.98 µM (inactive) | Ki [20]: 1.26 µM (active) | Ki [21]: > 5.01 µM (inactive) | Ki [22]: > 3.16 µM (inactive) | Ki [23]: 2 µM (active) | Ki [24]: > 3.98 µM (inactive) | Ki [25]: > 2.51 µM (inactive) | Ki [26]: > 2.51 µM (inactive) | Ki [27]: 2 µM (active) | Ki [28]: > 2.51 µM (inactive) | Ki [29]: > 2.51 µM (inactive) | Ki [30]: 0.0398 µM (active) | Ki [31]: > 2.51 µM (inactive) | Ki [32]: 0.00794 µM (active) | Ki [33]: 2 µM (active) | Ki [34]: > 3.16 µM (inactive) | Ki [35]: > 3.98 µM (inactive) | Ki [36]: > 1.58 µM (inactive) | Ki [37]: 0.02 µM (active) | Ki [38]: > 3.98 µM (inactive) | Ki [39]: > 2.51 µM (inactive) | Ki [40]: > 1.58 µM (inactive) | Ki [41]: > 3.16 µM (inactive) | Ki [42]: 0.00158 µM (active)
Structure (SMILES): COc1cc2c(cc1Nc1nc(Nc3cccc(F)c3C(N)=O)c3cc[nH]c3n1)N(C(=O)CN(C)C)CC2
Ki [12]: 0.1 µM (active)
